Results as given in patent US20240261295A1, “COMBINATIONS OF WEE1 INHIBITORS AND ANTI-CD47 ANTIBODIES” (Recurium IP Holdings, LLC, priority 2021, published 2024).

System: RPMI-8226 cells
Assay: RPMI-8226 xenograft model, tumor volume
Type: in vivo, Mice
Details: ZN-c3 60 mg/kg p.o. qd×21, single agent, RPMI-8226 subcutaneous xenograft
Protocol: Mice were inoculated with RPMI-8226 cells subcutaneously on the right flank with the single cell suspension of 95% viable tumor cells ([…]) in 100 μL RPMI 1640 Matrigel mixture (1:1 ratio) without serum for the tumor development. The treatment was started when the mean tumor size reached approximately 200 mm^3, with individual tumor size ranging from 185-235 mm^3. Animals were randomly distributed into treatment groups of 10 animals each and dosed with vehicle and indicated compounds at the indicated dosage and frequency shown in FIG. 2 and Table 1. In FIG. 2, the bottom line with circles is ZN-c3 60 mg/kg p.o. qd×21+Anti-CD47 20 mg/kg ip BIW×3. Anti-CD47 was obtained from Bio X Cell (clone B6.H12, catalog number BE0019-1). Tumor volumes were evaluated twice per week to calculate tumor volume over time, and the mice were weighed twice per week as a surrogate for signs of toxicity. Tumor growth inhibition (TGI) was calculated using the following equation TGI=(1−(Td−T0)/(Cd−C0))×100%. Td and Cd are the mean tumor volumes of the treated and control animals, and T0 and C0 are the mean tumor volumes of the treated and control animals at the start of the experiment. The tumor regression was defined as individual tumor volume (TV) decrease (terminal TV compared to initial TV). The percent tumor regression was calculated using the formula: (1−(Td/T0))×100%.

## C=CCn1c(=O)c2cnc(Nc3ccc(N4CCN(C)CC4)cc3)nc2n1-c1ccc2c(n1)[C@@](O)(CC)CC2 [ZN-c3]
  TGI % (Day 21): 61%
